# Measurements taken from patent publication US20250230193A1, “CYCLIC COMPOUND HAVING SELECTIVE KRAS INHIBITORY EFFECT ON HRAS AND NRAS” (CHUGAI SEIYAKU KABUSHIKI KAISHA, priority 2022, published 2025).
# *1 amine or outer side, *2 acyl side, *3 side chain or, on linkers, in order; H or OH if unused. Where a SMILES comes first, the peptide text is derived from it. Bridges are numbered along the chain shown (N, C = ends). [ ]: non-standard residue; d: D form. The star is where a group is joined. hPhe(3-Cl-4-CF3) = N[C@@H](CCc1ccc(C(F)(F)F)c(Cl)c1)C(=O)O; NPrPhe(4-CF3) = CCCN[C@@H](Cc1ccc(C(F)(F)F)cc1)C(=O)O; NMeGly(cPent) = CN[C@H](C(=O)O)C1CCCC1; Hyp = O=C(O)[C@@H]1C[C@@H](O)CN1; NMeD = CN[C@@H](CC(=O)O)C(=O)O; NMeL = CN[C@@H](CC(C)C)C(=O)O; X51 = O=C(CN(CCF)[*:1])[*:2]; Morpholide = C1CN(*)CCO1; NMeA = CN[C@@H](C)C(=O)O; Ac5c = NC1(C(=O)O)CCCC1; Aze = O=C(O)[C@@H]1CCN1; Sar = CNCC(=O)O
# Columns and labels:
# [1] = target: GDP-bound NRAS wild-type protein (Homo sapiens, UniProt P01111); experiment: Binding to NRAS by surface plasmon resonance (SPR), Single Cycle Kinetics
# [2] = target: GDP-bound HRAS wild-type protein (Homo sapiens, UniProt P01112); experiment: Binding to HRAS by surface plasmon resonance (SPR), Single Cycle Kinetics
# [3] = KD ratio, GDP-bound NRAS wild-type vs GDP-bound KRAS wild-type, SPR
# [4] = KD ratio, GDP-bound HRAS wild-type vs GDP-bound KRAS wild-type, SPR
# Sequence of GDP-bound HRAS wild-type protein (P01112 whole entry): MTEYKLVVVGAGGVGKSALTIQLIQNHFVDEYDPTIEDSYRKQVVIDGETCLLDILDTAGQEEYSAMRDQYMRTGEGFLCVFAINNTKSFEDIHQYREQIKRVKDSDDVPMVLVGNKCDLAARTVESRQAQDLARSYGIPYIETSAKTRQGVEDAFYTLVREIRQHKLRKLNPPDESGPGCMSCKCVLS
# Sequence of GDP-bound NRAS wild-type protein (P01111 whole entry): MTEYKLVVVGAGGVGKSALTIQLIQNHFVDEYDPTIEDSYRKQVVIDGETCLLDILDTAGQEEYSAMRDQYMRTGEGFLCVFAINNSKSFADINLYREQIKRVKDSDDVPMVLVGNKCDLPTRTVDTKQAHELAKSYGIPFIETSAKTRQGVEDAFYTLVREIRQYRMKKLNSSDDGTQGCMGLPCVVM
smiles,measurement,setting,value
CCC[C@H]1C(=O)N[C@@H]([C@@H](C)CC)C(=O)N(C)CC(=O)N(C)[C@H]2C/C=C\CCN(C2=O)[C@@H](Cc2ccc(C)cc2)C(=O)N(C)CC(=O)N[C@@H](CCc2cc(Cl)c3c(ccn3C)c2)C(=O)N2C[C@H](OCC)C[C@H]2C(=O)NC2(CC(C)(C)C2)C(=O)N(C)[C@@H](C2CCCC2)C(=O)N(C)[C@H](C(=O)N(C)C)CC(=O)N1C [PP2951],NRAS/KRAS (ratio of KD value with respect to GDP-bound NRAS wild-type protein to KD value with respect to KRAS),"[1]; KD ratio NRAS/KRAS, class symbols",A (a compound having 10 or more and less than 20 is denoted as A)
same,HRAS/KRAS (ratio of KD value with respect to GDP-bound HRAS wild-type protein to KD value with respect to KRAS),"[2]; KD ratio HRAS/KRAS, class symbols",A (a compound having 10 or more and less than 20 is denoted as A)
CCO[C@@H]1C[C@H]2C(=O)N(C)C3(CCCC3)C(=O)N(C)[C@@H](C3CCCC3)C(=O)N(C)[C@H](C(=O)N(C)C)CC(=O)N(C)[C@@H](CC)C(=O)N[C@@H]([C@@H](C)CC)C(=O)N(C)CC(=O)N(C)[C@H]3C/C=C\CCN(C3=O)[C@@H](Cc3ccc(C)cc3)C(=O)N(C)CC(=O)N[C@@H](CCc3cc(F)c(C(F)(F)F)c(F)c3)C(=O)N2C1 [PP1806],NRAS/KRAS (ratio of KD value for NRAS to KD value for KRAS),[1]; [3],A (a compound having 10 or more and less than 20 is denoted as A)
same,HRAS/KRAS (ratio of KD value for HRAS to KD value for KRAS),[2]; [4],B (a compound having 3 or more and less than 10 is denoted as B)
CCC[C@H]1C(=O)N[C@@H]([C@@H](C)CC)C(=O)N(C)CC(=O)N(C)[C@H]2C/C=C\CCN(C2=O)[C@@H](Cc2ccc(C(F)(F)F)cc2)C(=O)N(C)CC(=O)N[C@@H](CCc2ccc(Cl)c(Cl)c2)C(=O)N2C[C@H](OCC)C[C@H]2C(=O)NC2(CC(C)(C)C2)C(=O)N(C)[C@@H](C2CCCC2)C(=O)N(C)[C@H](C(=O)N(C)C)CC(=O)N1C [PP1932],NRAS/KRAS (ratio of KD value for NRAS to KD value for KRAS),[1]; [3],A (a compound having 10 or more and less than 20 is denoted as A)
same,HRAS/KRAS (ratio of KD value for HRAS to KD value for KRAS),[2]; [4],A (a compound having 10 or more and less than 20 is denoted as A)
CCCN1CC(=O)N(C)[C@H]2C/C=C\CCN(C2=O)[C@@H](Cc2ccc(C(F)(F)F)cc2)C(=O)N(C)CC(=O)N[C@@H](CCc2cc(F)c(C(F)(F)F)c(F)c2)C(=O)N2C[C@H](OCC)C[C@H]2C(=O)NC2(CCC2)C(=O)N(C)[C@@H](C2CCCC2)C(=O)N(C)[C@H](C(=O)N(C)C)CC(=O)N(C)[C@@H](CC)C(=O)N[C@@H]([C@@H](C)CC)C1=O [PP1053],NRAS/KRAS (ratio of KD value with respect to NRAS to KD value with respect to KRAS),[1]; [3],A (a compound having 10 or more and less than 20 is denoted as A)
same,HRAS/KRAS (ratio of KD value with respect to HRAS to KD value with respect to KRAS),[2]; [4],A (a compound having 10 or more and less than 20 is denoted as A)
CC[C@H](C)[C@@H]1NC(=O)[C@H](CC(C)C)N(C)C(=O)C[C@@H](C(=O)N2CCOCC2)N(C)C(=O)[C@H](C2CCCC2)N(C)C(=O)C2(CCCC2)NC(=O)[C@@H]2CCCN2C(=O)[C@H](CCc2ccc(C(F)(F)F)c(Cl)c2)NC(=O)CN(C)C(=O)[C@H](Cc2ccc(F)cc2)N2CCCCC[C@@H](C2=O)N(C)C(=O)CN(C)C1=O [PP0612],NRAS/KRAS (ratio of KD value with respect to GDP-bound NRAS wild-type protein to KD value with respect to KRAS),"[1]; KD ratio NRAS/KRAS, SPR",B (a compound having 3 or more and less than 10 is denoted as B)
same,HRAS/KRAS (ratio of KD value with respect to GDP-bound HRAS wild-type protein to KD value with respect to KRAS),"[2]; KD ratio HRAS/KRAS, SPR",B (a compound having 3 or more and less than 10 is denoted as B)
CCCN1C(=O)[C@@H]2CCN2C(=O)[C@H](C)N(C)C(=O)[C@H]([C@@H](C)CC)NC(=O)[C@H](CC(C)C)N(C)C(=O)C[C@@H](C(=O)N(C)C)NC(=O)[C@H](C2CCCC2)N(C)C(=O)C2(CCCC2)NC(=O)[C@@H]2C[C@@H](OCC)CN2C(=O)[C@H](CCc2ccc(C(F)(F)F)c(Cl)c2)NC(=O)CN(C)C(=O)[C@@H]1Cc1ccc(C(F)(F)F)cc1 [PP0383] ([NMeL]I[NMeA][Aze][NPrPhe(4-CF3)][Sar][hPhe(3-Cl-4-CF3)][Hyp](Et)[Ac5c][NMeGly(cPent)]D-NMe2; lactam N-11),NRAS/KRAS (ratio of KD for GDP-bound NRAS wild-type to KD for KRAS),"[1]; KD ratio NRAS/KRAS, SPR",C (A compound having a KD ratio of 0.1 or more and less than 3 is denoted as C)
same,HRAS/KRAS (ratio of KD for GDP-bound HRAS wild-type to KD for KRAS),"[2]; KD ratio HRAS/KRAS, SPR",B (a compound having 3 or more and less than 10 is denoted as B)
CCCN1C(=O)CN(C)C(=O)CN(CCF)C(=O)[C@H]([C@@H](C)CC)NC(=O)[C@H](CC(C)C)N(C)C(=O)C[C@@H](C(=O)N2CCOCC2)N(C)C(=O)[C@H](C2CCCC2)N(C)C(=O)C2(CCCC2)NC(=O)[C@@H]2CCCN2C(=O)[C@H](CCc2ccc(C(F)(F)F)c(Cl)c2)NC(=O)CN(C)C(=O)[C@@H]1Cc1ccc(C(F)(F)F)cc1 [PP0751] ([NMeL]I[X51][Sar][NPrPhe(4-CF3)][Sar][hPhe(3-Cl-4-CF3)]P[Ac5c][NMeGly(cPent)][NMeD]-Morpholide; lactam N-11),NRAS/KRAS (ratio of KD value with respect to GDP-bound NRAS wild-type protein to KD value with respect to KRAS),"[1]; KD ratio NRAS/KRAS, SPR",B (a compound having 3 or more and less than 10 is denoted as B)
same,HRAS/KRAS (ratio of KD value with respect to GDP-bound HRAS wild-type protein to KD value with respect to KRAS),"[2]; KD ratio HRAS/KRAS, SPR",C (A compound having a KD ratio of 0.1 or more and less than 3 is denoted as C)
